Data on 13 molecules can be found in patent US4707495A, “Peptic ulcer treatment method” (Ortho Pharmaceutical, priority 1985, dated 1987).

In test [1] the test system is gastric acid secretion. The conditions noted are these: laboratory animals and man; cited from earlier work.
A further test deals with submucosal lesions. Briefly: Cytoprotection: inhibition of submucosal gastric lesions induced by oral 50 percent ethanol. The format is in vivo, Male Charles River rats. The conditions noted are these: for Percent Inhibition of Submucosal Lesions, Oral: 2 percent aqueous ethanol vehicle; for Percent Inhibition of Submucosal Lesions, Topical: topical to shaved skin, 25 percent ethanolic water; for cytoprotection when applied topically (in words): topical, at the same unit dose as effective orally. On the procedure: Male Charles River rats weighing about 200 g each were fasted overnight, but were allowed water ad libitum. Rats used for the topical administration of this invention were shaved on their dorsal sides one day prior to being used as host mammals.
Compositions containing the active ingredient were prepared for oral administration by dissolving a prostaglandin in a 2 percent aqueous ethanolic solution that was administered in a dose volume of 0.2 milliliters per kilogram (ml/kg) of body weight at the unit dosages shown in Table 1 hereinafter. […] A fixed concentration for each dose was applied to the skin in a volume of 0.2 ml per rat.
Gastric lesions were induced by oral administration of 1.0 ml of a 50 percent ethanolic water solution that was administered one hour after administration of each of the active ingredients. The rats were sacrificed by asphyxiation one hour after gastric lesion induction using carbon dioxide. The rat stomachs were then removed, inflated with water, opened along the greater curvature, and were laid out on a flat surface. The presence of mucosal bleeding was noted, the mucosal layers were wiped, and the presence or absence of hemorrhagic sites was recorded.
The incidences of lesions compared to controls were statistically analyzed by either the method of Chi-square using Yate's correction or Fisher's Exact Probability Test.

Test [2] concerns gastric acid secretion. In words: Inhibition of gastric acid secretion (pylorus ligation). The conditions noted are these: for Percent Inhibition of Acid, Intraduodenal / Percent Inhibition of Acid, Topical: 4 h after pylorus ligation; for Percent Inhibition of Acid, Intraduodenal: 2 percent ethanolic water; for Percent Inhibition of Acid, Topical: topical to shaved skin, 25 percent ethanolic water. The format is in vivo, Male Charles River CD rats. The procedure:
Male Charles River CD rats weighing about 180 g each were shaved on their dorsal sides and derpived of food for a time period of 18 hours prior to use. Water was permitted ad libitim during that time, but was removed during the times at which the rats were studied as host mammals.
Compositions containing the active ingredient were administered intraduodenally at 1 ml/kg or were applied to directly contact the shaved skin at 0.2 ml/animal at the time the pylorus of each animal was ligated.
The animals were sacrificed by asphyxiation four hours after pylorus ligation using carbon dioxide. The gastric contents were collected in graduated centrifuge tubes that were centrifuged. The centrifugally separated supernatents were then analyzed for volume and acidity. Acid concentration (secretion) was determined by electrometric titration of a 1 ml aliquot of the recovered gastric juice against 0.1N NaOH to a pH value of 7.4.
Treated groups were compared to the control and statistical differences were declared by the method of least significant differences.
(treatment-control)/control×100%

For test [3], the system named is indomethacin-induced gastric lesions. Particulars: oral administration; cited from earlier work.
The subject of a further test is gastrointestinal mucosa. The conditions noted are these: in vivo; cited from earlier work.
Test [4] relates to gastric acid secretion. Particulars: given orally to rats, at any dose; cited from earlier work.
[5] abbreviates: 25 μg/kg, lesions by 50 percent ethanol 1 h after agent.
Setting [6] is: 25 μg/kg (estimate based on 200 g rat).
Where [7] appears, read: 5 μg/kg (estimate based on 200 g rat).

SMILES strings stand for the structures.

With `CCCCC[C@H](O)/C=C/[C@H]1[C@H](O)CC(=O)[C@@H]1CCCCCCC(=O)O` [PGE1, 9-oxo-11 alpha,15-dihydroxy-13-trans-prostenoic acid], in the test on gastric acid secretion [1], the gastric antisecretory activity result is “have gastric antisecretory activity in both laboratory animals and man”. In the test on submucosal lesions (setting [5]), the “Percent Inhibition of Submucosal Lesions, Oral” value (“Percent Inhibition … Oral” below) is reported as 60%. For the same molecule, the “Percent Inhibition of Submucosal Lesions, Topical” value in the test with submucosal lesions (setting [6]) was 10%. Further, the “cytoprotection when applied topically (in words)” value (“cytoprotection” for short) in the test with submucosal lesions is recorded as “ineffective at providing cytoprotection when applied topically”.
Consider `CCCCC(C)(C)C(O)/C=C/[C@H]1[C@H](C)CC(=O)[C@@H]1C/C=C\CCCC(=O)O` (relative stereo) [Trimoprostil, (±)9-oxo-11α-methyl-15-hydroxy-16,16-dimethyl-5-cis,13-trans-prost adienoic acid], for which, in the test on gastric acid secretion [2] (8.0 mg/kg), the “Percent Inhibition of Acid, Intraduodenal” value is 38% and the “Percent Inhibition of Acid, Topical” value is on record as 9%. For the same molecule, the “inhibition of gastric acid when applied topically (in words)” value with gastric acid secretion [2] (topical, at the unit dosage effective intraduodenally) is given as “ineffective at significantly inhibiting production of gastric acid, when applied topically”.
Regarding `CCCCC(C)(C)[C@H](O)/C=C/[C@H]1[C@H](O)CC(=O)[C@@H]1C/C=C\CCCC(=O)O` [dmPGE2, (5Z,11α,13E,15R)-11,15-dihydroxy-16,16-dimethyl-9-oxo-prosta-5,13-1-o ic acid acid], the “Percent Inhibition … Oral” value in the test with submucosal lesions (5 μg/kg) is recorded as 100%. Moreover, in the test on submucosal lesions (setting [7]), the “Percent Inhibition of Submucosal Lesions, Topical” value was 100%. Besides, the “cytoprotection” value in the test on submucosal lesions is reported as “effective at the same oral dose when applied externally”. Besides, in the test with gastric acid secretion [2] (1.0 mg/kg), the “Percent Inhibition of Acid, Intraduodenal” value is on record as 29% and the “Percent Inhibition of Acid, Topical” value came to 26%.
Consider `CCCCC[C@H](O)/C=C/[C@H]1[C@H](O)CC(=O)[C@@H]1C/C=C\CCCC(=O)O` [PGE2, 9-oxo-11α,15-dihydroxy-5-cis,13-transprostadienoic acid], for which the gastric antisecretory activity entry in the test with gastric acid secretion [1] was “have gastric antisecretory activity in both laboratory animals and man”. The “Percent Inhibition … Oral” value with submucosal lesions (setting [5]) is recorded as 40%. The “Percent Inhibition of Submucosal Lesions, Topical” value in the test on submucosal lesions (setting [6]) was 20%. Besides, the “cytoprotection” value with submucosal lesions is “ineffective at providing cytoprotection when applied topically”.
Turning to `CCCCC[C@H](O)/C=C/[C@H]1C=CC(=O)[C@@H]1CCCCCCC(=O)O` [PGA1], in test [3], the “protection from indomethacin-induced gastric lesions” value is “does not protect rats from indomethacin-induced gastric lesions”.
On to `CCCCC(C)(O)C/C=C/[C@H]1[C@H](O)CC(=O)[C@@H]1CCCCCCCO` (stereo partly drawn) [Rioprostil, (11α,13E)-1,11,16-trihydroxy-16-methyl-prost-13-en-9-one], for which the “Percent Inhibition … Oral” value in the test with submucosal lesions (setting [5]) is recorded as 87%. Besides, the “Percent Inhibition of Submucosal Lesions, Topical” value in the test on submucosal lesions (setting [6]) was 75%. Besides, in the test on submucosal lesions, the “cytoprotection” value is recorded as “effective at the same oral dose when applied externally”. Also, in the test on gastric acid secretion [2] (8.0 mg/kg), the “Percent Inhibition of Acid, Intraduodenal” value was 35% and the “Percent Inhibition of Acid, Topical” value is reported as 37%.
Consider `COC(=O)CCC=C=CC[C@H]1C(=O)C[C@@H](O)[C@@H]1/C=C/C(O)COc1ccccc1` (relative stereo) [Enprostil, 7-[3-hydroxy-2-(3-hydroxy-4-phenoxy-1-butenyl)-5-oxocyclopentyl]-4,5-heptad ienoic acid methyl ester], for which the “Percent Inhibition … Oral” value in the test on submucosal lesions (5 μg/kg) stood at 100%. In addition, the “Percent Inhibition of Submucosal Lesions, Topical” value in the test on submucosal lesions (setting [7]) is reported as 100%. Further, the “cytoprotection” value in the test on submucosal lesions is on record as “effective at the same oral dose when applied externally”. In the test on gastric acid secretion [2] (1.0 mg/kg), the “Percent Inhibition of Acid, Intraduodenal” value is 71% and the “Percent Inhibition of Acid, Topical” value was 32%.
For the molecule `CCCCC(C)(C)[C@H](O)/C=C/[C@H]1C=CC(=O)[C@@H]1C/C=C\CCCC(=O)O` [16,16-dimethyl PGA2], the cytoprotective activity entry with gastrointestinal mucosa is “cytoprotective”. In the test with gastric acid secretion [4], the antisecretory activity result is “not antisecretory at any dose when given orally to rats”.
Take `CCCCC[C@H](O)/C=C/[C@H]1C(=O)C[C@H](O)[C@@H]1C/C=C\CCCC(=O)O` [PGD2]: in test [3], the “protection from indomethacin-induced gastric lesions” value is given as “does not protect rats from indomethacin-induced gastric lesions”.
As for `CN/C(=N/CCSCc1nc[nH]c1C)NC#N` [cimetidine], the cytoprotective activity result with gastrointestinal mucosa is recorded as “not cytoprotective in the models employed”.
As for `CCCCC(C)(O)C/C=C/[C@H]1[C@H](O)CC(=O)[C@@H]1CCCCCCC(=O)OC` (mixture of isomers) [Misoprostol, (±)(11α,13E)-11,16-dihydroxy-16-methyl-9-oxo-prost-13-en-1-oic acid methyl ester], the “Percent Inhibition … Oral” value in the test with submucosal lesions (100 μg/kg) is listed as 87%. In addition, the “Percent Inhibition of Submucosal Lesions, Topical” value in the test on submucosal lesions (100 μg/kg (estimate based on 200 g rat)) is recorded as 75%. In the test with submucosal lesions, the “cytoprotection” value is reported as “effective at the same oral dose when applied externally”. In the test with gastric acid secretion [2] (8.0 mg/kg), the “Percent Inhibition of Acid, Intraduodenal” value amounted to 38% and the “Percent Inhibition of Acid, Topical” value is listed as 43%.
For the molecule `C[N+]1(C)[C@@H]2C[C@@H](OC(=O)[C@H](CO)c3ccccc3)C[C@H]1[C@@H]1O[C@@H]12` (stereo in doubt) [methscopolamine bromide], the cytoprotective activity entry in the test with gastrointestinal mucosa is on record as “not cytoprotective in the models employed”.
For the molecule `CCCCC[C@@](C)(O)/C=C/[C@@H]1[C@@H](C/C=C\CCCC(=O)O)[C@H](O)C[C@H]1O` [15(R)-15 methyl PGF2β], in the test on gastrointestinal mucosa, the cytoprotective activity entry is “cytoprotective”. Further, the antisecretory activity entry in the test on gastric acid secretion [4] is listed as “not antisecretory at any dose when given orally to rats”.
